Measured values reported in PubChem BioAssay (NCI).
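Five compound concentrations were applied to cells in 96-well plates for 48 hours; endpoints were derived by simple linear interpolation of the resulting dose-response curve. Abbreviation: GI50, concentration required for 50% inhibition of growth. TGI denotes the concentration required for complete inhibition of growth.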

Tests used:
Assay in all cases: NCI-60 cell line screen, 48 h
MCF7 breast = system: MCF7 breast
SF-295 CNS = system: SF-295 CNS
U251 CNS = system: U251 CNS
A498 renal = system: A498 renal
SNB-19 CNS = system: SNB-19 CNS
EKVX NSCLC = system: EKVX NSCLC
SF-268 CNS = system: SF-268 CNS
786-0 renal = system: 786-0 renal
SK-OV-3 ovarian = system: SK-OV-3 ovarian
IGROV1 ovarian = system: IGROV1 ovarian
SK-MEL-28 melanoma = system: SK-MEL-28 melanoma
RXF 393 renal = system: RXF 393 renal
PC-3 prostate = system: PC-3 prostate
CCRF-CEM leukemia = system: CCRF-CEM leukemia
HCT-116 colon = system: HCT-116 colon
HL-60(TB) leukemia = system: HL-60(TB) leukemia
T-47D breast = system: T-47D breast
HS 578T breast = system: HS 578T breast
DU-145 prostate = system: DU-145 prostate
HOP-62 NSCLC = system: HOP-62 NSCLC
HCT-15 colon = system: HCT-15 colon
RPMI-8226 leukemia = system: RPMI-8226 leukemia
MOLT-4 leukemia = system: MOLT-4 leukemia
SN12C renal = system: SN12C renal
UACC-257 melanoma = system: UACC-257 melanoma
ACHN renal = system: ACHN renal
CAKI-1 renal = system: CAKI-1 renal
OVCAR-3 ovarian = system: OVCAR-3 ovarian
M14 melanoma = system: M14 melanoma
SF-539 CNS = system: SF-539 CNS
MDA-MB-231 breast = system: MDA-MB-231 breast
LOX IMVI melanoma = system: LOX IMVI melanoma
KM12 colon = system: KM12 colon
NCI-H226 lung = system: NCI-H226 lung
OVCAR-5 ovarian = system: OVCAR-5 ovarian
NCI-H460 lung = system: NCI-H460 lung
COLO 205 colon = system: COLO 205 colon
SW-620 colon = system: SW-620 colon
A549 NSCLC = system: A549 NSCLC
MDA-MB-435 = system: MDA-MB-435
HOP-92 NSCLC = system: HOP-92 NSCLC
NCI-H23 lung = system: NCI-H23 lung
MALME-3M melanoma = system: MALME-3M melanoma
HCC-2998 colon = system: HCC-2998 colon
OVCAR-4 ovarian = system: OVCAR-4 ovarian
OVCAR-8 ovarian = system: OVCAR-8 ovarian
UO-31 renal = system: UO-31 renal
UACC-62 melanoma = system: UACC-62 melanoma
SNB-75 CNS = system: SNB-75 CNS
NCI/ADR-RES ovarian = system: NCI/ADR-RES ovarian
SK-MEL-5 melanoma = system: SK-MEL-5 melanoma

## NC(=NCc1ccccc1)C(N=Nc1ccccc1)C(=O)NCc1ccccc1 (configuration not stated)
MCF7 breast
  GI50: 12 µM
  TGI: 32 µM
SF-295 CNS
  GI50: 1.9 µM
  TGI: 5.16 µM
U251 CNS
  GI50: 5.75 µM
  TGI: 25.9 µM
A498 renal
  GI50: 6.17 µM
  TGI: 23 µM
SNB-19 CNS
  GI50: 13.2 µM
  TGI: 31.5 µM
EKVX NSCLC
  GI50: 4.49 µM
  TGI: 23.5 µM
SF-268 CNS
  GI50: 2.53 µM
  TGI: 6.44 µM
786-0 renal
  GI50: 12.1 µM
  TGI: 30 µM
SK-OV-3 ovarian
  GI50: 20.1 µM
  TGI: 47.7 µM
IGROV1 ovarian
  GI50: 3.42 µM
  TGI: 19.8 µM
SK-MEL-28 melanoma
  GI50: 20.4 µM
  TGI: 45.7 µM
RXF 393 renal
  GI50: 12.9 µM
  TGI: 27 µM
PC-3 prostate
  GI50: 1.84 µM
  TGI: 4.02 µM
CCRF-CEM leukemia
  GI50: 3.54 µM
  TGI: 84.4 µM
HCT-116 colon
  GI50: 1.76 µM
  TGI: 3.47 µM
HL-60(TB) leukemia
  GI50: 4.64 µM
  TGI: 27.4 µM
T-47D breast
  GI50: 13.6 µM
  TGI: 35.4 µM
HS 578T breast
  GI50: 2.92 µM
  TGI: 13.9 µM
DU-145 prostate
  GI50: 2.28 µM
  TGI: 6.01 µM
HOP-62 NSCLC
  GI50: 12.6 µM
  TGI: 29.6 µM
HCT-15 colon
  GI50: 8.19 µM
  TGI: 67.3 µM
RPMI-8226 leukemia
  GI50: 9.31 µM
  TGI: > 100 µM
MOLT-4 leukemia
  GI50: 5.53 µM
  TGI: > 100 µM
SN12C renal
  GI50: 22.6 µM
  TGI: 87 µM
UACC-257 melanoma
  GI50: 26.8 µM
  TGI: 69.5 µM
ACHN renal
  GI50: 18.1 µM
  TGI: 39.3 µM
CAKI-1 renal
  GI50: 3.44 µM
  TGI: 15.2 µM
OVCAR-3 ovarian
  GI50: 1.93 µM
  TGI: 3.75 µM
M14 melanoma
  GI50: 5.71 µM
  TGI: 22.3 µM
SF-539 CNS
  GI50: 16.6 µM
  TGI: 37.1 µM
MDA-MB-231 breast
  GI50: 14.4 µM
  TGI: 35.2 µM
LOX IMVI melanoma
  GI50: 8.36 µM
  TGI: 24.3 µM
KM12 colon
  GI50: 2.04 µM
  TGI: 4.65 µM
NCI-H226 lung
  GI50: 21.3 µM
  TGI: 52.6 µM
OVCAR-5 ovarian
  GI50: 18 µM
  TGI: 44.7 µM
NCI-H460 lung
  GI50: 2.37 µM
  TGI: 6.18 µM
COLO 205 colon
  GI50: 14.8 µM
  TGI: 37.2 µM
SW-620 colon
  GI50: 1.83 µM
  TGI: 3.62 µM
A549 NSCLC
  GI50: 3.05 µM
  TGI: 10.1 µM
MDA-MB-435
  GI50: 5.51 µM
  TGI: 25.5 µM
HOP-92 NSCLC
  GI50: 1.78 µM
  TGI: 7.38 µM
NCI-H23 lung
  GI50: 5 µM
  TGI: 21.9 µM
MALME-3M melanoma
  GI50: 21.5 µM
  TGI: 48.2 µM
HCC-2998 colon
  GI50: 11.5 µM
  TGI: 29.9 µM
OVCAR-4 ovarian
  GI50: 18.5 µM
  TGI: 45.1 µM
OVCAR-8 ovarian
  GI50: 3.56 µM
  TGI: 15.2 µM
UO-31 renal
  GI50: 5.87 µM
  TGI: 29.1 µM
UACC-62 melanoma
  GI50: 16.5 µM
  TGI: 37.6 µM
SNB-75 CNS
  GI50: 13.2 µM
  TGI: 27.7 µM
NCI/ADR-RES ovarian
  GI50: 6.46 µM
  TGI: 23.8 µM
SK-MEL-5 melanoma
  GI50: 23.4 µM
  TGI: 67.3 µM
